Data on 18 compounds can be found in patent US20240350643A1, “PROTEIN DEGRADATION AGENT” (SUZHOU KINTOR PHARMACEUTICALS, INC., priority 2021, published 2024).

Experiment [1] relates to HL60 cells. In words: Anti-proliferation ability of compounds on HL60 cells (CTG). The format is cell-based, human. To be noted: Homo sapiens, HL-60, 72 h, 3 days, CellTiter-Glo, read-out: HL60 cells Proliferation inhibitory activity. Put shortly: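 Proliferation inhibition IC50 derived from CellTiter-Glo luminescence after 3-day compound treatment of HL60 cells plated at 20000 per well, against 0.1% DMSO controls.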
(In ATP-based viability assays light output follows the ATP content of the culture.)

The target in experiment [2] is T1, c-Myc protein (Homo sapiens, UniProt P01106).
T1 construct: endogenous in cells; host or cells: HL60 cells
In words: Ability of compounds to degrade c-Myc protein in HL60 cells (ELISA). The format is cell-based. To be noted: HL-60, 1 μM compound, 24 h, read-out: HL60 cells Protein degradation rate (1 μM). A general note: In an ELISA, binding on a coated surface is turned into a signal by an enzyme label.

T1 sequence (P01106 whole entry): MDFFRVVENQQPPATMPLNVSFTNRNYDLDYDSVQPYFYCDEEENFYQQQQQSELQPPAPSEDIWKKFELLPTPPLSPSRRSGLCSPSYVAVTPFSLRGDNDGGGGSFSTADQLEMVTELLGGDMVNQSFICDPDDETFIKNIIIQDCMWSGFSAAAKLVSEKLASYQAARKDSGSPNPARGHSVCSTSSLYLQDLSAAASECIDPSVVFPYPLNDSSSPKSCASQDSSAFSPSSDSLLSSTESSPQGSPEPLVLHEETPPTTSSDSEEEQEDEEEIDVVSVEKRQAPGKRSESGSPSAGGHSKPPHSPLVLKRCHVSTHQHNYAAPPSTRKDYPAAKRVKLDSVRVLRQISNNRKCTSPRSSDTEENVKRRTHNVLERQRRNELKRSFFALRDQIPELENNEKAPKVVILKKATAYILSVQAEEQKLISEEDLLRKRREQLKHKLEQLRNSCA

With `COc1cc(CNC(=O)Cn2c3ccccc3c3cccnc32)ccc1CNC(=O)c1ccc2c(c1)C(=O)N(C1CCC(=O)NC1=O)C2=O` (stereo not drawn) [A112], the IC50 in experiment [1] stood at 3 ± 0.1 nM. In addition, in experiment [2], the inhibition at 1 µM lay in the range of 60 to 90%.

For `O=C(Cn1c2ccccc2c2cccnc21)NCc1csc(CNC(=O)c2ccc3c(c2)C(=O)N(C2CCC(=O)NC2=O)C3=O)n1` (stereo not drawn) [A136], in experiment [1], the IC50 amounted to 211 ± 45.9 nM. Also, the inhibition at 1 µM in experiment [2] was 60 to 90%.

Consider `O=C(Cc1cccc2ccccc12)NCc1ccc(CC(=O)Nc2ccc3c(c2)C(=O)N(C2CCC(=O)NC2=O)C3=O)cc1` (stereo not drawn) [A165], for which, in experiment [1], the IC50 is 27.9 ± 19.5 nM. The inhibition at 1 µM in experiment [2] lay in the range of 60 to 90%.

In the case of `O=C1CCC(N2C(=O)c3ccc(C(=O)NCc4ccc(CN(CCc5cccc6ccccc56)Cc5ccccc5)cc4)cc3C2=O)C(=O)N1` (stereo not drawn) [A96], in experiment [1], the IC50 was 960 ± 121 nM. Besides, in experiment [2], the inhibition at 1 µM was in the range of 60 to 90%.

For `O=C(Cc1cccc2ccccc12)NCc1ccc(CNCc2ccc3c(c2)CN(C2CCC(=O)NC2=O)C3=O)cc1` (stereo not drawn) [A193], in experiment [1], the IC50 was found to be 0.6 ± 0.1 nM. In addition, in experiment [2], the inhibition at 1 µM is 60 to 90%.

On to `O=C(Cn1c2ccccc2c2cccnc21)NCc1ccc(CC(=O)Nc2ccc3c(c2)CN(C2CCC(=O)NC2=O)C3=O)cc1` (stereo not drawn) [A171], for which the IC50 in experiment [1] was 0.3 ± 0.2 nM. Further, the inhibition at 1 µM in experiment [2] lay within 60 to 90%.

For `O=C1CCC(N2C(=O)c3ccc(C(=O)NCc4ccc(COCCc5cccc6ccccc56)cc4)cc3C2=O)C(=O)N1` (stereo not drawn) [A75], the IC50 in experiment [1] was 2730 ± 614 nM. Moreover, the inhibition at 1 µM in experiment [2] fell in the range of 60 to 90%.

Turning to `O=C(Cn1c2ccccc2c2cccnc21)NCCCCCCCCOc1ccc2c(c1)C(=O)N(C1CCC(=O)NC1=O)C2=O` (stereo not drawn) [A18], the IC50 in experiment [1] was 1220 ± 217 nM. For the same compound, in experiment [2], the inhibition at 1 µM was 30 to 60%.

In the case of `CN(CCn1c2ccccc2c2cccnc21)Cc1ccc(CNC(=O)c2ccc3c(c2)CN(C2CCC(=O)NC2=O)C3=O)cc1` (stereo not drawn) [A156], in experiment [1], the IC50 is less than 3 nM. Moreover, the inhibition at 1 µM in experiment [2] fell in the range of 60 to 90%.

Turning to `O=C(Cc1ccccc1Cl)NCc1ccc(CNC(=O)c2ccc3c(c2)C(=O)N(C2CCC(=O)NC2=O)C3=O)cc1` (stereo not drawn) [A57], the IC50 in experiment [1] turned out to be 214 ± 4.7 nM. Further, in experiment [2], the inhibition at 1 µM was in the range of 60 to 90%.

Regarding `O=C(CCc1cccc(Cl)c1Cl)NCc1ccc(CNC(=O)c2ccc3c(c2)C(=O)N(C2CCC(=O)NC2=O)C3=O)cc1` (stereo not drawn) [A61], the IC50 in experiment [1] was 108 ± 6.5 nM. Also, the inhibition at 1 µM in experiment [2] was 60 to 90%.

For the compound `CN(CCc1nccc2ccccc12)Cc1ccc(CNC(=O)c2ccc3c(c2)C(=O)N(C2CCC(=O)NC2=O)C3=O)cc1` (stereo not drawn) [A98], the IC50 in experiment [1] was found to be 11.2 ± 1.3 nM. The inhibition at 1 µM in experiment [2] lay in the range of 60 to 90%.

In the case of `O=C(Cc1cccc2ccccc12)NCc1ccc(CNC(=O)c2ccc3c(c2)CN(C2CCC(=O)NC2=O)C3=O)cc1` (stereo not drawn) [A152], the IC50 in experiment [1] worked out at 0.6 ± 0.3 nM. For the same compound, the inhibition at 1 µM in experiment [2] is 60 to 90%.

`O=C(Cn1c2ccccc2c2cccnc21)NCc1ccc(CNC(=O)c2ccc3c(c2)CN(C2CCC(=O)NC2=O)C3=O)cc1` (stereo not drawn) [A153]: the IC50 in experiment [1] was 0.5 ± 0.3 nM. Besides, the inhibition at 1 µM in experiment [2] was in the range of 60 to 90%.

Take `O=C(Cc1cccc2ccccc12)NCc1ccc(CNC(=O)c2ccc3c(c2)C(=O)N(C2CCC(=O)NC2=O)C3=O)cn1` (stereo not drawn) [A128]: in experiment [1], the IC50 was 2140 ± 788 nM. Besides, in experiment [2], the inhibition at 1 µM is 10 to 30%.

Take `CN(CCn1c2ccccc2c2cccnc21)Cc1ccc(CC(=O)Nc2ccc3c(c2)C(=O)N(C2CCC(=O)NC2=O)C3=O)cc1` (stereo not drawn) [A168]: in experiment [1], the IC50 was determined as 2.6 ± 0.7 nM. In addition, the inhibition at 1 µM in experiment [2] lay in the range of 60 to 90%.

As for `O=C(Cc1cccc2ccccc12)NC[C@H]1CC[C@H](CNC(=O)c2ccc3c(c2)C(=O)N(C2CCC(=O)NC2=O)C3=O)CC1` (stereo partly drawn) [A22], the IC50 in experiment [1] stood at 29.2 ± 14.4 nM. In experiment [2], the inhibition at 1 µM fell in the range of 30 to 60%.

As to `O=C(Cc1cccc2ccccc12)NCc1cccc(CNC(=O)c2ccc3c(c2)C(=O)N(C2CCC(=O)NC2=O)C3=O)c1` (stereo not drawn) [A37], in experiment [1], the IC50 was determined as 314 nM. Moreover, in experiment [2], the inhibition at 1 µM lay in the range of 30 to 60%.
